The source of these data is US20220211684A1, “ANTIFUNGAL AGENTS FOR CANDIDA AURIS DECOLONIZATION” (Scynexis, Inc., priority 2019, published 2022).

The subject of data set [1] is Candida auris. The data set can be described thus: Guinea pig model of Candida auris skin infection, skin burden. It is filed as in vivo, Guinea pigs. The method, then: (§1) Guinea pigs (n=5 per group) were randomized to receive 10 or 20 or 30 mg/kg of ibrexafungerp twice daily (BID) by gavage, or vehicle control. Animals received a single dose of prednisolone at 30 mg/kg, subcutaneously, one day prior and one and three days post infection to favor immuno-compromise of the animals and facilitate the development of Candida auris skin infection. A 100 μl cell suspension containing 10^8 blastospores of Candida auris was applied to an abraded area on the back of the animals. At Day 7, tissue biopsies were examined histologically, and tissue fungal burden was analyzed by colony counts from skin samples. PK bioanalysis of ibrexafungerp plasma concentrations was conducted following the final dose (Day 7).

A short description of another data set: in vivo. The settings on record: guinea pig, po, 10 mg/kg. Set-up: species or system Guinea pigs. The procedure:
as §1

The next data set is described as follows: clinical. The settings on record: human, in vivo, po. Also noted: species or system humans. The text has this: Print 2019 February PMID: 30478166). Such features are important for the treatment and prevention of fungal infections, as well as for achieving decolonization of susceptible fungal pathogens such as Candida auris.
The test system of data set [2] is Candida auris. In words: MIC50 against 102 Candida auris clinical and surveillance isolates from an outbreak in New York. In kind it is cell-based. The settings on record: 97 isolates with variable or multidrug resistance; for MIC50: Candidozyma auris. The text has this:
Low MIC50 values for ibrexafungerp were found for 102 Candida auris clinical and surveillance isolates from an outbreak in New York. The isolates included C. auris with a variable resistance to antifungal drugs (resistance to one drug in one or two classes of antifungal drugs), multidrug-resistant isolates (resistance to two or more drugs between two classes of antifungal drugs), and pan-resistant isolates (resistance to two or more azoles, all tested echinocandins, and amphotericin B). For the 97 isolates that had variable or multidrug resistance to the other tested antifungal drugs (including fluconazole, voriconazole, itraconazole, isavuconazole, posaconazole, anidulafungin, caspofungin, micafungin, amphotericin B, and flucytosine), the ibrexafungerp MIC50 range was 0.06-0.5 μg/ml; the median and mode for ibrexafungerp MIC50 were each 0.5 μg/ml.

For data set [3], the system named is Candida auris. The settings on record: 100 isolates of Candida auris; cited from earlier work.
For another data set, the system named is Candida spp. To be noted: previous animal models of systemic Candida spp. infection; cited from earlier work.

Values after ≈ are worked out from the molar mass of the structure shown. Where two headings read alike, the source gives them in different places. A value given as a limit tells only on which side of the number the result lay.

Usually AUC(0-t) stands for exposure summed from dosing to a finite time, without extrapolation to infinity. Higher therefore signals high exposure. As a reminder, the bioavailability is dose-corrected exposure relative to a reference, in per cent. Higher therefore signals much systemic uptake. Consider `CC(C)[C@@H](C)[C@@]1(C)CC[C@]2(C)[C@H]3CC[C@@H]4[C@@]5(COC[C@@]4(C)[C@@H](OC[C@](C)(N)C(C)(C)C)[C@H](n4ncnc4-c4ccncc4)C5)C3=CC[C@@]2(C)[C@@H]1C(=O)O` [ibrexafungerp, (1S,4aR,6aS,7R,8R,10aR,10bR,12aR,14R,15R)-15-[[(2R)-2-amino-2,3,3-trimethylbutyl]oxy]-8-[(1R)-1,2-dimethylpropyl]-14[5-(4-pyridinyl)-1H-1,2,4-triazol-1-yl]-1,6,6a,7,8,9,10,10a,10b,11,12,12a-dodecahydro-1,6a,8,10a-tetramethyl-4H-1,4a-propano-2H-phenanthro[1,2-c]pyran-7-carboxylic acid], for which the “Tissue burdens of Candida auris (skin, colony counts)” value in the data set with Candida auris [1] (10, 20 or 30 mg/kg BID by gavage, Day 7, versus vehicle control) was “lower in all treatment groups versus in the vehicle control group”. The “fungal elements in biopsy samples (histology)” value in the data set with Candida auris [1] (Day 7 tissue biopsies, versus untreated control) is given as “No fungal elements were observed”. Also, the “clinical scores (crusting, inflammation)” value in the data set with Candida auris [1] (among the active treatment groups) is on record as “no significant differences”. This compound displayed an AUC(0-t) in “in vivo” of 2800 ng·h/mL. Further, the bioavailability in “clinical” is greater than 20%. This compound came in with an MIC50 range with Candida auris [2] of 0.06 to 0.5 µg/mL. Moreover, the MIC50 was 0.5 µg/mL (≈ 0.685 µM) in the data set on Candida auris [2] (read-out: MIC50 median), 0.5 µg/mL (≈ 0.685 µM) with Candida auris [2] (read-out: MIC50 mode) and 0.5 micrograms/ml in the data set on Candida auris [3]. Also, the MIC90 in the data set with Candida auris [3] was 1 micrograms/ml. In the data set on Candida auris [3], the MIC overall mode is 1 micrograms/ml. Besides, the “exposures needed to achieve efficacy” value in the data set with Candida spp. is roughly 11.2 µg·h/mL.
